Data: BindingDB's records for PubMed 1987453 (Georgetown University, 1991)

Target: Nicotinic acetylcholine receptor (Rattus leucopus, UniProt Q62594)
Sequence (Q62594 whole entry): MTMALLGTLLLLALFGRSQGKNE

Compound	Ki [µM]
CNC(=O)Oc1ccc2c(c1)[C@]1(C)CCN(C)C1N2C (some centres undefined)	> 10
C=C(C=O)C[C@H]1C[C@H](O)[C@]2(C)O[C@@H]3C[C@@H]4O[C@@H]5C[C@]6(C)O[C@]7(C)CC[C@@H]8O[C@@H]9C[C@]%10(C)O[C@@H]%11C(C)=CC(=O)O[C@H]%11C[C@H]%10O[C@H]9C[C@@H](C)[C@H]8O[C@H]7C[C@H]6O[C@@]5(C)C/C=C\[C@H]4O[C@H]3C[C@H]2O1	2
CN1[C@@H]2CC[C@H]1CC(OC(=O)[C@H](CO)c1ccccc1)C2 (some centres undefined) [CAS_51-55-8]	> 10
COc1cc2c3cc1Oc1cc(ccc1O)CC1c4c(cc(OC)c(O)c4Oc4ccc(cc4)CC3[N+](C)(C)CC2)CC[N+]1(C)C (centres undefined) [CAS_8063-06-7]	> 10
